Source: ChEMBL document CHEMBL5604062, “ASAP - ZIKV NS2B-NS3 protease fluorescence dose response” (2024)
“And” between values parts separate entries of the source, which are not always exact repeats. Equal values may be shown once.

Target: Nonstructural protein 3 (Zika virus, UniProt A0A024AXB9)
Assay: Functional biochemical assay to identify treatments for viral infectious disease that targets Zika NS2B-NS3 protease. Utilizing a direct enzyme activity measurement method, reading the fluorescence intensity is used to characterize the relative potency of inhibitors as IC50.
Set-up: species or system PRVABC59

Sequence of Nonstructural protein 3 (A0A024AXB9 whole entry): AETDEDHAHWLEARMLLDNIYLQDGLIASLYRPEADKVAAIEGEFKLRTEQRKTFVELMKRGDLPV

Compound | IC50
COc1ncc(C(=O)Nc2cccc(CN)c2)cc1NC(=O)OCc1ccccc1 | > 99.5 µM
Brc1cc(CNc2ccc3c(c2)CNC3)c2cc[nH]c2c1 | 4.32 µM
O=C(Nc1ccc2c(c1)CNC2)c1ccc2[nH]cnc2c1 | 2.95 µM
C[C@@H](N)c1ccc(NC(=O)c2cc(Cl)cc(NC(=O)OCc3ccccc3)c2)cc1 | 14.6 µM
CC(C)(C)c1ccc2[nH]cc(CN3CCC(c4cscn4)CC3)c2c1 | > 99.5 µM
CN(C)Cc1ccccc1CNC(=O)[C@@H](NC(=O)OCc1ccccc1)c1ccc(OCc2ccccc2)cc1 | > 99.5 µM
O=C(Nc1cc(Cl)cc(-c2cc(NCc3ccccc3)c(C(=O)O)cn2)c1)OCc1ccccc1 | 14 µM
NCc1cccc(NC(=O)[C@@H](NC(=O)OCc2ccccc2)c2ccc(OCC3CCOCC3)cc2)c1 | 95.5 µM
CCc1c(C(=O)Nc2cccc(CN)c2)c2cc(Cl)ccc2n1C | > 99.5 µM
O=C(Nc1ccc2c(c1)CNC2)c1cc(Br)cc2cccnc12 | 13.4 µM
Cc1c(C(=O)Nc2ccc3c(c2)C(=O)N(C)C3)cc(C2CC2)n1C | > 25 µM
Cc1cc(CN)cc(NC(=O)c2cc(Cl)cc(NC(=O)OCc3ccccc3)c2)c1 | 5.16 µM
CNC(=O)[C@]1(Nc2ccc3c(c2)CNC3)C(=O)Nc2ccc(Cl)cc21 | > 25 µM
O=C(O)c1cc2cc(-c3cccc([C@H]4CNCCO4)c3)ccc2[nH]1 | > 99.5 µM
O=C(N[C@@H](C(=O)Nc1ncc([C@H]2CCCN2)s1)c1ccc(OCc2ccccc2)cc1)OCc1ccccc1 | > 99.5 µM
NCc1cccc(NC(=O)Cc2ccc(OCc3ccccc3)cc2)c1 | > 99.5 µM
CC(C)NC(=O)[C@H](Nc1ccc2c(c1)CNC2)c1cc(Cl)cc2[nH]ncc12 | 0.086 µM and 0.054 µM and 0.124 µM and 0.138 µM and 0.089 µM
CCNC(=O)Nc1cc(Cl)cc(C(=O)Nc2ccc([C@H](CC)Cc3nnn[nH]3)cc2)c1 | > 99.5 µM
OCc1ccc(Cl)c(N2CCN(c3ccc4[nH]cnc4c3)CC2)n1 | > 99.5 µM
NCc1ccc(-c2ncc(OCC3CCNCC3)nc2-c2ccc(-c3ccoc3)cc2)cc1 | > 99.5 µM
Cc1c(C(=O)Nc2cccc(-c3ccccc3)c2)cc(C2CC2)n1C | > 25 µM
COCCNC(=O)[C@H](Nc1cccc([C@H]2CCOC2)c1)c1cc(Cl)cc2[nH]ncc12 | > 25 µM
Cn1c(=O)[nH]c2cc(C(=O)Nc3ccc4c(c3)CNC4)cc(Br)c21 | 6.85 µM
CC[C@H](Cc1nnn[nH]1)c1ccc(NC(=O)c2cc(Cl)cc3c2CCC3)cc1 | > 99.5 µM
COc1ccc(S(=O)(=O)n2nc(OC(=O)c3cccc(-c4ccccc4Cl)c3)cc2N)cc1 | 0.183 µM
NCc1cccc(NC(=O)C[C@H](NC(=O)OCc2ccccc2)c2ccc(Cl)c(Br)c2)c1 | 20.7 µM and 18.8 µM and 15.9 µM and 15.5 µM

Compound | IC50
O=C(Nc1ccc2c(c1)CNC2)c1cc(Cl)cc2[nH]c(CCc3cccnc3)nc12 | 0.144 µM
Cc1ncc2c(n1)CCC[C@H]2NC(=O)c1cccc2c1CC(=O)N2 | > 25 µM
NCc1cccc(NC(=O)C[C@H](NC(=O)OCc2ccccc2)c2ccc(OCc3ccccc3)c(Br)c2)c1 | 2.72 µM and 2.68 µM and 3.22 µM and 3.04 µM
NCc1ccc(C(=O)O)c(NC(=O)c2cc(Cl)cc(NC(=O)OCc3ccccc3)c2)c1 | > 99.5 µM
Cc1cc(NC(=O)c2cc(Cl)cc3[nH]ncc23)ccc1N1CCNCC1 | 6.48 µM
O=C(Nc1ccc2c(c1)CNC2)c1ccc(-c2cncs2)cc1 | > 25 µM
O=c1ccc(-n2cncn2)nn1CC=Cc1ccccc1 | > 99.5 µM
O=C1CN(Cc2c[nH]c3ccccc23)CCN1c1cccnc1 | > 99.5 µM
CC(C)c1nn(-c2ccccc2)cc1C(=O)Nc1cccc(CN)c1 | > 99.5 µM
CNC(=O)[C@H](Nc1cc(Cl)cc2[nH]ncc12)c1ccc2c(c1)CNC2 | 3.99 µM
CC(C)NC(=O)[C@H](Nc1ccc2c(c1)CN(C)C2(C)C)c1cc(Cl)cc2[nH]ncc12 | 3.83 µM
O=C1O[C@H]2CCN(Cc3ccc(OCc4ccccc4)cc3)C[C@H]12 | > 99.5 µM
O=C(O)CCc1ccc(NC(=O)c2cc(Cl)cc(NC(=O)OCc3ccccc3)c2)cc1 | > 99.5 µM
NC1(c2cc(C(F)(F)F)ccc2NS(=O)(=O)c2ccc(Oc3ccccc3Cl)cc2)CC1 | > 99.5 µM
O=C(Nc1cc(Cl)cc(C(=O)NC2([C@H]3CCNC3)CC2)c1)OCc1ccccc1 | > 99.5 µM
N=C(N)Nc1ccc(NC(=O)Oc2ccccc2)cc1 | > 100 µM
CN(C)Cc1csc(NC(=O)[C@@H](NC(=O)OCc2ccccc2)c2ccc(OCc3ccccc3)cc2)n1 | > 99.5 µM
Cn1cc2c(C(=O)Nc3ccc4c(c3)CNC4)cc(F)cc2n1 | 0.107 µM
CC(C)(C)NC(=O)[C@H](Nc1ccc2c(c1)CNC2)c1cc(Cl)cc2[nH]ncc12 | 3.12 µM
Cn1nccc1CN1CCC(NS(=O)(=O)c2ccc(Cl)cc2C(=O)O)CC1 | > 99.5 µM
CC[C@H](C(=O)Nc1cccc(CN)c1)n1cc(Br)c(C(F)(F)F)n1 | > 99.5 µM
O=C(NC[C@H]1CCCO1)[C@H](Nc1ccc2c(c1)CNC2)c1cc(Cl)cc(C2CC2)c1 | 0.071 µM and 0.053 µM
O=C(O)c1cc(Cl)ccc1S(=O)(=O)NC1CCN(S(=O)(=O)c2cccs2)CC1 | > 99.5 µM
CN(C(=O)[C@@H](NC(=O)OCc1ccccc1)c1ccc(OCc2ccccc2)cc1)c1cccc(CN)c1 | > 99.5 µM
NCc1ccc(NC(=O)c2cc(Cl)cc3[nH]ncc23)cc1 | 3.18 µM
NCc1ccnc(CNC(=O)[C@@H](NC(=O)OCc2ccccc2)c2ccc(OCc3ccccc3)cc2)c1 | 93.7 µM

Compound | IC50
NCc1cccc(NC(=O)c2cc3c(F)cc(F)c(F)c3[nH]2)c1 | 42.4 µM
NCc1cccc(NC(=O)[C@H](NC(=O)OCc2ccccc2)c2ccc(OCc3ccccc3)c(Br)c2)c1 | 5.07 µM
OCC#C[C@H](Nc1ccc(-c2nnn[nH]2)cc1)c1cc(Cl)cc(C2CC2)c1 | > 99.5 µM
CCn1c(=O)c(N2CC[C@H](CO)C2)nc2ccc(C(=O)OC)cc21 | > 99.5 µM
O=C(NCC1CCNCC1)c1cc(Cl)cc2[nH]ncc12 | 74.6 µM
O=C(Nc1ccc2c(c1)CNC2)c1cc(Cl)ccc1OCC(F)(F)F | 2.77 µM
NC[C@H]1CC[C@H](NC(=O)[C@@H](NC(=O)OCc2ccccc2)c2ccc(OCc3ccccc3)cc2)CC1 | 81.2 µM
Cc1cc(CN(C)C)cc(NC(=O)[C@H](NC(=O)OCc2ccccc2)c2ccc(OCc3ccccc3)cc2)c1 | > 99.5 µM
C[C@H](CC(=O)O)NC(=O)c1cc(Cl)cc(NC(=O)OCc2ccccc2)c1 | > 99.5 µM
CCn1c(=O)c(N2CCC[C@H]2CN2CCCC2)nc2ccccc21 | > 99.5 µM
Cc1c(C(=O)Nc2ncc3c(c2C#N)CCOC3)cc(C2CC2)n1C | > 25 µM
O=C(Nc1ccc2c(c1)CNC2)c1cc(Cl)nc2[nH]ncc12 | 1.54 µM
CCn1c(=O)c(N2CC[C@H](CO)C2)nc2cc(C(=O)NCc3ccccc3)ccc21 | > 99.5 µM
COc1c(Cl)cc(Cl)cc1C(=O)Nc1cccc(CN)c1 | 13.9 µM
O=C(Nc1cc(Cl)cc(C(=O)NC2(c3nnn[nH]3)CC2)c1)OCc1ccccc1 | > 99.5 µM
Cc1nc(-c2ccc(Cl)cc2)sc1C(=O)Nc1cccc(CN)c1 | 91.1 µM
NCc1cccc(NC(=O)c2cc(C(F)(F)F)cnc2N2CCOCC2)c1 | > 99.5 µM
CCn1ccnc(-n2cc([C@@H]3NC(=O)NC3=O)c3ccccc32)c1=O | > 99.5 µM
C=CC[C@H]1NCc2cc(NC(=O)c3cc(F)cc4c3CC(=O)N4)ccc21 | 0.156 µM
CCc1cc(C(=O)Nc2cccc(-n3nn[nH]c3=O)c2)sc1-c1ccc(Cl)cc1 | 24.7 µM
Cc1c(C(=O)NCc2ccc(CN)cc2)cc(C2CC2)n1C | > 99.5 µM
NCc1cccc(NC(=O)[C@H](NC(=O)OCc2ccccc2)c2cccc(OCc3ccncc3)c2)c1 | > 99.5 µM
CC(C)n1cc2c(C(=O)Nc3ccc4c(c3)CNC4)cc(Cl)cc2n1 | 0.046 µM and 0.034 µM
CCc1onc(C2CCOCC2)c1C(=O)Nc1cccc(CN)c1 | > 99.5 µM
C[C@H]1C[C@@H](C(=O)Nc2cccc(CN)c2)CC(=O)N1 | > 99.5 µM
O=C(Nc1cc(Cl)cc(C(=O)Nc2cccc(-c3cc[nH]n3)c2)c1)OCc1ccccc1 | > 99.5 µM

Compound | IC50
Cn1nc(C2CC2)cc1C(=O)Nc1cc(-c2cccnc2)ccn1 | > 25 µM
NCc1cc(NC(=O)c2cc(Cl)cc(NC(=O)OCc3ccccc3)c2)cc(-c2ccc3c(c2)C[C@H](C(=O)O)CO3)c1 | > 99.5 µM
Fc1cc(F)c2[nH]cc(CN3CCC(c4cscn4)CC3)c2c1F | > 99.5 µM
NCc1cccc(NC(=O)[C@H]2c3ccccc3CCN2C(=O)OCc2ccccc2)c1 | > 99.5 µM
COc1ccc(-n2nnnc2SC(F)F)cc1 | > 99.5 µM
Nc1cccc(NC(=O)c2cc(Cl)cc(NC(=O)OCc3ccccc3)c2)c1 | > 99.5 µM
O=C(Nc1ccc2c(c1)CNC2)N1CCC[C@H]1c1cc(C(F)(F)F)no1 | > 25 µM
NCc1ccccc1C1CCN(C(=O)[C@H]2CCN3CC[C@H]2C3)CC1 | > 99.5 µM
O=C(Nc1cc(Cl)cc(C(=O)N2CC[C@H](C(=O)O)C2)c1)OCc1ccccc1 | > 99.5 µM
C[C@H](C1CC1)n1ncc2c(C(=O)Nc3ccc4c(c3)CNC4)cc(C3CC3)nc21 | 8.05 µM
NC(=O)c1cccnc1N1CCCN(c2nc(-c3cc(Cl)cc(Cl)c3)no2)CC1 | > 99.5 µM
O=C(Nc1ccc2c(c1)CNC2)c1n[nH]c2ccc(F)cc12 | 16.9 µM
COc1c(C(=O)N(C)C)cc(Cl)cc1S(=O)(=O)Nc1cccc(-c2nnn[nH]2)c1 | > 99.5 µM
O=C(O)c1ccc(NC(=O)c2cc(Cl)cc3[nH]ncc23)cc1 | > 99.5 µM
C[C@H](NC(=O)c1cccc2c1CC(=O)N2)c1ccncc1F | > 25 µM
CCOc1cccc(N2CC[C@@H](CO)C2)c1 | > 99.5 µM
c1ccc([C@@H]2C[C@H]3C[C@@H]2C[C@H]3NCc2n[nH]c3ccccc23)cc1 | > 99.5 µM
Cc1ccncc1-c1cc(CN)cc([C@@H]2C[C@H]2c2cc(Cl)cc(NC(=O)OCc3ccccc3)c2)c1 | 21.1 µM
CCOc1cc(COc2cccnc2F)nc(N2CCNCC2)n1 | > 99.5 µM
CC1(C)CNC[C@H](C(=O)Nc2cccc(CN)c2)C1 | > 99.5 µM
CN(C)Cc1cccc(C(=O)Nc2cc(Cl)cc(C(=O)NC(C)(C)CO)c2)c1 | > 99.5 µM
CCOc1cccc(-c2ccc(S(=O)(=O)Nc3cc4c(cc3C(=O)O)CCC4)cc2)c1 | 14.2 µM
O=C(Nc1ccc2c(c1)CNC2)c1ccc2c(c1)NCCO2 | > 99.5 µM
O=C(O)c1cc(Cl)cc(Cl)c1S(=O)(=O)Nc1ccc(Oc2ccccc2Cl)cc1 | > 99.5 µM
O=C(O)c1cc(Cl)ccc1S(=O)(=O)Nc1ccc(N2CCCCC2)c(Cl)c1 | > 99.5 µM
